Consider one molecule from US20010034345A1, “METHODS OF ADMINSTERING AN AMPA RECEPTOR ANTAGONIST TO TREAT DYSKINESIAS ASSOCIATED WITH DOPAMINE AGONIST THERAPY” (priority 1997, published 2001).

SMILES strings stand for the structures.

For data set [1], the system named is choreic dyskinesia induced by dopamine agonist. Put plainly: In vivo model for dyskinesias associated with dopamine agonist therapy (MPTP parkinsonian monkeys). The following applies: 0.3 mg/kg sc.; one MPTP parkinsonian monkey, dyskinesias induced by chronic L-DOPA followed by PHNO. On the procedure: The following procedure may be used to assess the efficacy of an AMPA receptor antagonist in the treatment of dyskinesias associated with dopamine agonist therapy in the treatment of Parkinson's disease. Aged, female rhesus monkeys are rendered Parkinsonian as follows. Each monkey is first infused with 0.4 mg/kg MPTP (1-methyl-4-phenyl-1,2,3,6-tetrahydropyridine) via the right internal carotid artery. After being evaluated behaviorally for 3 to 6 weeks and being judged to have stable unilateral deficits, the animals receive a second MPTP injection via the left internal carotid artery. […] Once the monkeys are Parkinsonian, dyskinesias are induced over a period of approximately 3 to 6 weeks by treating the monkeys twice daily with subcutaneous injections of PHNO ((+)-4-propyl-9-hydroxynaphthoxazine) (a dopamine agonist). Dyskinesias are assessed 30 minutes after PHNO injection and every 30 minutes for the next 120 minutes (5 measurements) taking into account the following: type of dyskinesia (chorea, dystonia); intensity (0=absent; 1=mild; 2=moderate; 3=severe); and topography (arm, leg, trunk, generalized). The overall score (0-3) is averaged over the 5 measurements. Scoring is performed blindly from coded videotapes. An AMPA receptor antagonist is then administered together with the dopamine agonist at dosages ranging from 0.05 mg/kg to 1 mg/kg. […]

The test system of data set [2] is behavior of monkeys (MPTP-treated or untreated). Put plainly: Behavioral effect in other monkeys (MPTP-treated or untreated). The data set is classed as in vivo, monkey. The conditions noted are these: 0.3 mg/kg sc. On the procedure:
Monkeys were made parkinsonian by intracarotid injection of the dopamine neuron toxin MPTP. Choreic and dystonic dyskinesias were induced in one monkey by chronic administration of L-DOPA followed by the selective D2 agonist PHNO. 3-(2-chloro-phenyl)-2-[2(6-diethylaminomethyl-pyridin-2-yl)-vinyl]-6-fluoro-3H-quinazolin-4-one (0.3 mg/kg sc.) reduced by 80% the choreic dyskinesia induced by dopamine agonist.

For the molecule `CCN(CC)Cc1cccc(C=Cc2nc3ccc(F)cc3c(=O)n2-c2ccccc2Cl)n1` [3-(2-chloro-phenyl)-2-[2-(6-diethylaminomethyl-pyridin-2-yl)-vinyl]-6-fluoro-3H-quinazolin-4-one], the “reduction of choreic dyskinesia induced by dopamine agonist” value in data set [1] is reported as 80%. The behavioral effect entry in data set [2] is “little or no behavioral effect”.
